Measurements as given in PubChem BioAssay AID330 (DTP/NCI, 2004).
“And” between values parts separate entries of the source, which are not always exact repeats. Equal values may be shown once. Inconclusive results and toxic doses are left out.

Test system: P388 leukemia ip, CD2F1 mice, survival T/C
Assay: NCI In Vivo Anticancer Drug Screen. Data for tumor model P388 Leukemia (intraperitoneal) in CD2F1 (CDF1) mice
Conditions: endpoint: median survival time, higher = longer survival
In short: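 Mice carrying the transplanted tumor received test compound or vehicle. Survival was recorded in each group, and the value is the treated-group measurement divided by that of the vehicle-treated control group.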

[1] = dose: 60.0 mg/kg/injection, schedule: Q01DX005 (ip), vehicle: saline
[2] = dose: 120.0 mg/kg/injection, schedule: Q01DX005 (ip), vehicle: saline
[3] = dose: 240.0 mg/kg/injection, schedule: Q01DX005 (ip), vehicle: saline
[4] = dose: 50.0 mg/kg/injection, schedule: Q01DX005 (ip), vehicle: saline with Tween-80
[5] = dose: 100.0 mg/kg/injection, schedule: Q01DX005 (ip), vehicle: saline with Tween-80
[6] = dose: 200.0 mg/kg/injection, schedule: Q01DX005 (ip), vehicle: saline with Tween-80
[7] = dose: 25.0 mg/kg/injection, schedule: Q01DX005 (ip), vehicle: Klucel (hydroxypropylcellulose) (HPC)
[8] = dose: 50.0 mg/kg/injection, schedule: Q01DX005 (ip), vehicle: Klucel (hydroxypropylcellulose) (HPC)
[9] = dose: 50.0 mg/kg/injection, schedule: Q01DX009 (ip), vehicle: saline with Tween-80
[10] = dose: 50.0 mg/kg/injection, schedule: Q01DX009 (ip), vehicle: Klucel (hydroxypropylcellulose) (HPC)
[11] = dose: 100.0 mg/kg/injection, schedule: Q01DX009 (ip), vehicle: Klucel (hydroxypropylcellulose) (HPC)
[12] = dose: 3.12 mg/kg/injection, schedule: Q01DX009 (ip), vehicle: saline
[13] = dose: 100.0 mg/kg/injection, schedule: Q01DX009 (ip), vehicle: saline with Tween-80
[14] = dose: 200.0 mg/kg/injection, schedule: Q01DX009 (ip), vehicle: saline with Tween-80
[15] = dose: 100.0 mg/kg/injection, schedule: Q01DX005 (ip), vehicle: Klucel (hydroxypropylcellulose) (HPC)

## COC1c2ccccc2CC(c2ccccc2)=NN1C(C)=O (stereo unspecified)
[1]
  T/C: 100 % of control
[2]
  T/C: 102 % of control
[3]
  T/C: 97 % of control

## CCC1(O)CC(OC2CC(N(C)C)C(OC3CC(O)C(OC4CCC(=O)C(C)O4)C(C)O3)C(C)O2)c2c(cc3c(c2O)C(=O)c2c(O)ccc(O)c2C3=O)C1C(=O)OC (stereo unspecified)
dose: 0.78 mg/kg/injection, schedule: Q01DX009 (ip), vehicle: saline with Tween-80
  T/C: 178 % of control
dose: 1:4.0 dilution, schedule: Q01DX009 (ip), vehicle: saline
  T/C: 241 % of control
dose: 1:8.0 dilution, schedule: Q01DX009 (ip), vehicle: saline
  T/C: 190 % of control

## Cc1ccc2c(c1)nc(-c1ccccn1)n2CCc1ccccn1
dose: 50.0 mg/kg/injection, schedule: Q04DX002 (ip), vehicle: Klucel (hydroxypropylcellulose) (HPC)
  T/C: 100 % of control
dose: 100.0 mg/kg/injection, schedule: Q04DX002 (ip), vehicle: Klucel (hydroxypropylcellulose) (HPC)
  T/C: 102 % of control
dose: 200.0 mg/kg/injection, schedule: Q04DX002 (ip), vehicle: Klucel (hydroxypropylcellulose) (HPC)
  T/C: 105 % of control

## CCOC(=O)C(Cc1ccc(N(CCCl)CCCl)cc1)NC(=O)C(Cc1ccc(N)cc1)NC(C)=O (stereo unspecified)
dose: 3.12 mg/kg/injection, schedule: Q01DX005 (ip), vehicle: saline with Tween-80
  T/C: 123 % of control
dose: 6.25 mg/kg/injection, schedule: Q01DX005 (ip), vehicle: saline with Tween-80
  T/C: 159 % of control
dose: 12.5 mg/kg/injection, schedule: Q01DX005 (ip), vehicle: saline with Tween-80
  T/C: 207 % of control
dose: 25.0 mg/kg/injection, schedule: Q01DX005 (ip), vehicle: saline with Tween-80
  T/C: 298 % of control
[4]
  T/C: 104 % of control and 115 % of control and 117 % of control
[5]
  T/C: 114 % of control and 120 % of control
[6]
  T/C: 122 % of control
dose: 400.0 mg/kg/injection, schedule: Q01DX005 (ip), vehicle: saline with Tween-80
  T/C: 115 % of control

## N#Cc1ncc(C[n+]2ccccc2)nc1N
dose: 10.0 mg/kg/injection, schedule: Q01DX009 (ip), vehicle: saline
  T/C: 109 % of control
dose: 20.0 mg/kg/injection, schedule: Q01DX009 (ip), vehicle: saline
  T/C: 107 % of control
dose: 40.0 mg/kg/injection, schedule: Q01DX009 (ip), vehicle: saline
  T/C: 100 % of control

## C/C(=N\O)C1CCN(Cc2ccccc2)CC1
dose: 12.5 mg/kg/injection, schedule: Q01DX005 (ip), vehicle: Klucel (hydroxypropylcellulose) (HPC)
  T/C: 105 % of control
[7]
  T/C: 110 % of control
[8]
  T/C: 100 % of control and 105 % of control

## CC(O)Cn1nnc2ccccc2c1=O (stereo unspecified)
[4]
  T/C: 107 % of control
[5]
  T/C: 105 % of control
[6]
  T/C: 112 % of control

## CCCN=C1NS(=O)(=O)c2ccccc21
[4]
  T/C: 110 % of control
[5]
  T/C: 98 % of control
[6]
  T/C: 93 % of control

## Nc1ccc(/C=C/c2ccc3ncccc3c2)cc1
dose: 12.5 mg/kg/injection, schedule: Q01DX009 (ip), vehicle: saline with Tween-80
  T/C: 100 % of control
dose: 25.0 mg/kg/injection, schedule: Q01DX009 (ip), vehicle: saline with Tween-80
  T/C: 109 % of control
[9]
  T/C: 97 % of control

## CC(C)c1ccc(C(CC(=O)c2ccccc2)C(C(=O)O)c2ccc([N+](=O)[O-])cc2)cc1 (stereo unspecified)
[10]
  T/C: 105 % of control
[11]
  T/C: 103 % of control
dose: 200.0 mg/kg/injection, schedule: Q01DX009 (ip), vehicle: Klucel (hydroxypropylcellulose) (HPC)
  T/C: 104 % of control

## OC1(c2ccncc2)C=CCC1 (stereo unspecified)
dose: 100.0 mg/kg/injection, schedule: Q04DX002 (ip), vehicle: saline with Tween-80
  T/C: 95 % of control

## COc1ccc(NC(=O)c2ccc3c(c2)OCO3)cc1
dose: 12.5 mg/kg/injection, schedule: Q01DX009 (ip), vehicle: other
  T/C: 108 % of control
dose: 25.0 mg/kg/injection, schedule: Q01DX009 (ip), vehicle: other
  T/C: 103 % of control
dose: 50.0 mg/kg/injection, schedule: Q01DX009 (ip), vehicle: other
  T/C: 94 % of control
dose: 100.0 mg/kg/injection, schedule: Q01DX009 (ip), vehicle: other
  T/C: 95 % of control
dose: 200.0 mg/kg/injection, schedule: Q01DX009 (ip), vehicle: other
  T/C: 91 % of control

## Clc1ccc(SSN2CCOCC2)cc1
[12]
  T/C: 100 % of control
dose: 6.25 mg/kg/injection, schedule: Q01DX009 (ip), vehicle: saline
  T/C: 109 % of control
dose: 12.5 mg/kg/injection, schedule: Q01DX009 (ip), vehicle: saline
  T/C: 102 % of control

## O=[N+]([O-])c1ccc(/C(=C/c2ccc(F)cc2)S(=O)(=O)c2ccccc2)o1
dose: 50.0 mg/kg/injection, schedule: Q01DX009 (ip), vehicle: suspension in saline
  T/C: 97 % of control
dose: 100.0 mg/kg/injection, schedule: Q01DX009 (ip), vehicle: suspension in saline
  T/C: 88 % of control

## Cc1ncc(S(=O)(=O)Cc2ccc3c(c2)OCO3)c(N)n1
dose: 100.0 mg/kg/injection, schedule: Q01DX001 (ip), vehicle: saline
  T/C: 96 % of control
dose: 200.0 mg/kg/injection, schedule: Q01DX001 (ip), vehicle: saline
  T/C: 95 % of control
dose: 400.0 mg/kg/injection, schedule: Q01DX001 (ip), vehicle: saline
  T/C: 95 % of control

## Cn1c(=O)c2[nH]cnc2n(C)c1=O (tested in a mixture with another compound)
[9]
  T/C: 104 % of control
[13]
  T/C: 95 % of control
[14]
  T/C: 104 % of control

## CSc1noc(N)n1
dose: 12.5 mg/kg/injection, schedule: Q01DX005 (ip), vehicle: saline
  T/C: 94 % of control
dose: 25.0 mg/kg/injection, schedule: Q01DX005 (ip), vehicle: saline
  T/C: 91 % of control
dose: 50.0 mg/kg/injection, schedule: Q01DX005 (ip), vehicle: saline
  T/C: 103 % of control and 94 % of control

## O=[N+]([O-])OI(c1ccccc1)c1ccccc1
dose: 1.56 mg/kg/injection, schedule: Q01DX009 (ip), vehicle: saline
  T/C: 100 % of control and 101 % of control (2×)
[12]
  T/C: 101 % of control and 104 % of control

## O=C1C2CCC(CC2)C1C(c1ccccc1)c1ccccc1 (stereo unspecified)
[9]
  T/C: 93 % of control
[13]
  T/C: 91 % of control
[14]
  T/C: 90 % of control

## COc1ccc(C2(O)c3ccccc3C(=O)c3ccccc32)cc1
[8]
  T/C: 95 % of control
[15]
  T/C: 96 % of control
dose: 200.0 mg/kg/injection, schedule: Q01DX005 (ip), vehicle: Klucel (hydroxypropylcellulose) (HPC)
  T/C: 107 % of control

## CCOc1ccc(C(C)c2cc3c(cc2OCC(=O)O)OCO3)cc1 (stereo unspecified)
[4]
  T/C: 109 % of control
[5]
  T/C: 90 % of control

## CCOC(=O)C1=C(C(C)=O)C(c2ccccc2[N+](=O)[O-])C(C(C)=O)=C(C(=O)OCC)N1
[1]
  T/C: 104 % of control
[2]
  T/C: 105 % of control
[3]
  T/C: 96 % of control

## NC(=O)CCNC(=O)CCCNC(=O)CCC[c-]1[c-][c-][c-][c-]1.[Fe].[c-]1[c-][c-][cH-][c-]1
dose: 12.5 mg/kg/injection, schedule: Q01DX009 (ip), vehicle: distilled water + Tween-80
  T/C: 111 % of control and 119 % of control
dose: 25.0 mg/kg/injection, schedule: Q01DX009 (ip), vehicle: distilled water + Tween-80
  T/C: 115 % of control
dose: 100.0 mg/kg/injection, schedule: Q01DX009 (ip), vehicle: distilled water + Tween-80
  T/C: 123 % of control

## Cn1ccc(=O)n(C)c1=O
dose: 100.0 mg/kg/injection, schedule: Q04DX002 (ip), vehicle: saline
  T/C: 107 % of control
dose: 200.0 mg/kg/injection, schedule: Q04DX002 (ip), vehicle: saline
  T/C: 107 % of control
dose: 400.0 mg/kg/injection, schedule: Q04DX002 (ip), vehicle: saline
  T/C: 109 % of control

## CCOC(=O)C1=C(C(C)=O)C(c2ccc([N+](=O)[O-])cc2)C(C(C)=O)=C(C(=O)OCC)N1
dose: 7.5 mg/kg/injection, schedule: Q01DX005 (ip), vehicle: Klucel (hydroxypropylcellulose) (HPC)
  T/C: 101 % of control
dose: 15.0 mg/kg/injection, schedule: Q01DX005 (ip), vehicle: Klucel (hydroxypropylcellulose) (HPC)
  T/C: 104 % of control
dose: 30.0 mg/kg/injection, schedule: Q01DX005 (ip), vehicle: Klucel (hydroxypropylcellulose) (HPC)
  T/C: 102 % of control

## N#CCCC1(CCC#N)CCCC(CCC#N)(CCC#N)C1=O
[9]
  T/C: 95 % of control
[13]
  T/C: 99 % of control
[14]
  T/C: 87 % of control
dose: 400.0 mg/kg/injection, schedule: Q01DX009 (ip), vehicle: saline with Tween-80
  T/C: 92 % of control

## CCCCCCCC[As](CCCCCCCC)SC1OC(COC(C)=O)C(OC(C)=O)C(OC(C)=O)C1OC(C)=O (stereo unspecified)
[10]
  T/C: 102 % of control
[11]
  T/C: 90 % of control

## CCOC(=O)c1cc(CC)[nH]c(=O)c1C#N
[7]
  T/C: 92 % of control
[8]
  T/C: 98 % of control
[15]
  T/C: 100 % of control
